Experimental findings from ChEMBL document CHEMBL1133825, “3-D-QSAR/CoMFA and recognition models of benzimidazole derivatives at the 5-HT(4) receptor” (Bioorg Med Chem Lett, 2001) are described below.

Assay [1] addresses T1, 5-hydroxytryptamine receptor 4 (Rattus norvegicus, UniProt Q62758). As to the kind of experiment: pKi against 5-hydroxytryptamine 4 receptor in rat striatum membrane. It is filed as cell membranes.
The target in assay [2] is T1, 5-hydroxytryptamine receptor 4. Put plainly: In vitro binding affinity to 5-hydroxytryptamine 4 receptor in rat striatum membrane. Format: cell membranes.

Molecules are shown by their SMILES.

T1 sequence (Q62758 whole entry): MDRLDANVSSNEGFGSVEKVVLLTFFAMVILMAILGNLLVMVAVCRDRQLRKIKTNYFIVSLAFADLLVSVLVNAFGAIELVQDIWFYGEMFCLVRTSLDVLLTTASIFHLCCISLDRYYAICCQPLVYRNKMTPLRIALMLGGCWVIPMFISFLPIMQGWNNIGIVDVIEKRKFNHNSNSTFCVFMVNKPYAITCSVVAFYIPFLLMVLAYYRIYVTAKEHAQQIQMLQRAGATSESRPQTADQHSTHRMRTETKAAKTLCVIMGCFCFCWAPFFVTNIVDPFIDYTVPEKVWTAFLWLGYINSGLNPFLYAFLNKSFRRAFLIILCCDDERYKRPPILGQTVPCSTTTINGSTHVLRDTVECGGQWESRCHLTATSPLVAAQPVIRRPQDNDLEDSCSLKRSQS

For `CC(C)CN1CCC(CNC(=O)c2cc(Cl)cc3[nH]cnc23)CC1`, the inhibition constant (Ki) was 0.288 nM in assay [1] and 0.29 nM in assay [2].
For `CN1CCC(OC(=O)c2cccc3nc[nH]c23)CC1`, in that order: greater than 10000 nM and greater than 10000 nM.
For `CC(C)CN1CCC(CNC(=O)c2cc(Cl)cc3c2ncn3Cc2ccccc2)CC1`, in that order: 69.2 nM and 69.2 nM.
For `CCCCN1CCC(COC(=O)c2cc(Cl)cc3[nH]cnc23)CC1`, in that order: 2.88 nM and 2.9 nM.
In the case of `CCCCN1CCC(CNC(=O)c2cc(Br)c(N)c3nc[nH]c23)CC1`, the figures for the inhibition constant Ki in assay [1] and in assay [2] were 27.5 nM and 27.8 nM, respectively.
In the case of `CS(=O)(=O)NCCN1CCC(CNC(=O)c2cccc3[nH]cnc23)CC1`, the Ki was 11.5 nM in assay [1] and 11.4 nM in assay [2].
For `CS(=O)(=O)NCCN1CCC(CNC(=O)c2cc(Cl)cc3[nH]cnc23)CC1`, in that order: 0.11 nM and 0.11 nM.
With `CCCCN1CCC(CNC(=O)c2cc(Br)c([N+](=O)[O-])c3[nH]cnc23)CC1`, the results for the inhibition constant Ki in assay [1] and in assay [2] were 47.9 nM and 48.2 nM, respectively.
For `CCN1CCC(NC(=O)c2cccc3[nH]cnc23)CC1`, in that order: greater than 1000 nM and greater than 1000 nM.
Taken in the same sequence, the figures for `CCCN1CCC(NC(=O)c2cccc3nc[nH]c23)CC1` were greater than 1000 nM and greater than 1000 nM.
As for `CS(=O)(=O)NCCN1CCC(COC(=O)c2cccc3nc[nH]c23)CC1`, the figures for the Ki in assay [1] and in assay [2] were 26.3 nM and 26.1 nM, respectively.
For `CCCCN1CCC(NC(=O)c2cccc3nc[nH]c23)CC1`, in that order: 288 nM and 290 nM.
As for `CCCCN1CCC(COC(=O)c2cccc3nc[nH]c23)CC1`, the Ki in assay [1] is 24.5 nM; in assay [2], 24.6 nM.
Taken in the same sequence, the figures for `CS(=O)(=O)NCCN1CCC(COC(=O)c2cc(Cl)cc3[nH]cnc23)CC1` were 2.29 nM and 2.3 nM.
For `CCCCN1CCC(CNC(=O)c2cc(Cl)cc3[nH]cnc23)CC1`, in that order: 0.324 nM and 0.32 nM.
Taken in the same sequence, the figures for `CCCCN1CCC(CNC(=O)c2cc(Br)cc3[nH]cnc23)CC1` were 0.646 nM and 0.64 nM.
On to `CCCCN1CCC(CNC(=O)c2ccc(N)c3[nH]cnc23)CC1`, for which the Ki in assay [1] and in assay [2] was 115 nM each time.
In the case of `CCCCN1CCC(CNC(=O)c2cc(Cl)c(N)c3[nH]cnc23)CC1`, the Ki in assay [1] and in assay [2] was 22.4 nM throughout.
For `CC(C)CN1CCC(CNC(=O)c2cc(Cl)cc3c2ncn3C)CC1`, the values for the inhibitory constant (Ki) in assay [1] and in assay [2] were 2.19 nM and 2.2 nM, respectively.
For `CCCCCN1CCC(CNC(=O)c2cc(Cl)cc3[nH]cnc23)CC1`, in that order: 0.537 nM and 0.54 nM.
In the case of `CCCCN1CCC(CNC(=O)c2cc(Cl)c([N+](=O)[O-])c3nc[nH]c23)CC1`, the values for the Ki in assay [1] and in assay [2] were 44.7 nM and 44.6 nM, respectively.
Take `CCCCN1CCC(CNC(=O)c2cccc3[nH]cnc23)CC1`: the inhibition constant Ki in assay [1] was 13.8 nM; in assay [2], 13.7 nM.

The Ki is the equilibrium dissociation constant of an inhibitor or competing ligand from its target. Lower therefore signals higher affinity.
